The values that follow come from paper PMC4579270, “Identification and Characterization of an Irreversible Inhibitor of CDK2” (Chemistry & Biology, 2015).

One experiment has as its target CAMK1 (Homo sapiens, UniProt Q14012). Kind of experiment: Dundee protein kinase screen. The format is biochemical. The note with it: CAMK1, 1µM; read-out: %Remaining activity at 1µM NU6300. On the procedure:
(§1) Prior to determining its cellular activity, we carried out a screen to assess its selectivity against a panel of 131 protein kinases under conditions that would not distinguish between a reversible or irreversible mode of action. […] These 13 kinases and 29 additional kinases, selected for their known sensitivity to other inhibitors within the purine series, were then tested in a modified screening format in which the assay was repeated following a 4-hr pre-incubation (Table S3B). […] However, conformational flexibility around the active site may promote such an interaction with a residue from another part of the structure ([Martin et al., 2012]).
(§2) Table S3, Related to Figure 4. NCL-0006300 protein kinase selectivity. (A) NU6300 was tested at a single concentration of 1µM against 131 protein kinases present in a Dundee protein kinase screen (Bain et al., 2007). Values given are % activity remaining and are the average of duplicate measurements: 0-25% (red), 26-50% (yellow), 51-80% (black) and above 81% (green). The kinase domain sequences (as defined by UniProt) of […]
(§3) have a lysine residue at a position close to CDK2 Lys88 or Lys89. However, in the structure of tyrosine-protein kinase BTK (PDB ID: 3GEN) the residue equivalent to CDK2 Asp86 is Cys481 and therefore there is the potential for a covalent adduct to be formed through this side chain. […]

The next experiment deals with CK1δ (Homo sapiens, UniProt P48730). The experiment in a line: Dundee protein kinase screen. The format is biochemical. The note with it: read-out: %Remaining activity at 1µM NU6300. On the procedure:
as §1, §2, §3

A further experiment concerns the target CSK (Homo sapiens, UniProt P41240). The experiment in a line: Dundee protein kinase screen. The note with it: read-out: %Remaining activity at 1µM NU6300. The class given is biochemical. How it is done:
as §1, §2, §3

The target of a further experiment is IKKe (Homo sapiens, UniProt Q14164). Kind of experiment: Dundee protein kinase screen. The format is biochemical. The note with it: read-out: %Remaining activity at 1µM NU6300. How it is done:
as §1, §2, §3

The target in a further experiment is ABL (Homo sapiens, UniProt P00519). Kind of experiment: Dundee protein kinase screen. The class given is biochemical. The note with it: read-out: %Remaining activity at 1µM NU6300. How it is done: as §1, §2, §3
The target of a further experiment is Aurora B (Homo sapiens, UniProt Q96GD4). Kind of experiment: Dundee protein kinase screen. The format is biochemical. The note with it: read-out: %Remaining activity at 1µM NU6300. On the procedure: as §1, §2, §3
A further experiment deals with T1, CDK2^D86A (Homo sapiens, UniProt P24941, D86A).
T1 construct: GST (N, cleaved yes); made in house; host or cells: Escherichia coli; phosphorylated in vitro by GST-CAK
Kind of experiment: ESI-MS of covalent adduct, mutant. The note with it: CDK2^D86A/cyclin A, overnight incubation. On the procedure:
(§4) These residues were individually mutated to an alanine, glutamate, or valine, respectively, and the resulting mutant CDK2/cyclin A complexes were analyzed by ESI-MS following overnight incubation with either NU6300 (exact mass 413.15) or DMSO (Figure S2 and Table S1).
(§5) Figure S2, Related to Figure 3. Identification of the site of CDK2 modification by NU6300. (A-G) Single site CDK2 mutants CDK2D86A, CDK2K88E, and CDK2K89V identify the site of CDK2 modification by NU6300. These mutations change the CDK2 sequence to that of CDK7 and are known not to disrupt the CDK2 fold. Mass spectra of CDK2 mutants:
(§6) (A), (D), CDK2D86A/cyclin A; (B), (E), CDK2K88E/cyclin A; (C), (F), CDK2K89V/cyclin A (3 mg/mL) pre-incubated overnight in the absence/presence of NU6300. (A-C), positive controls, CDK2/cyclin A mutants assayed in the absence of NU6300; (D-F), CDK2/cyclin A mutants pre-incubated with NU6300. For each mutant, the experimentally determined and […]
(§7) (G) Protein kinase activity of authentic CDK2 and single site CDK2 mutants following incubation with NU6300 or NU6310. Samples were taken at the indicated number of minutes after initiation of the reaction. Note that compared to authentic CDK2, the single site Lys88 and Lys89 mutants have a slower rate of reaction (Compare LHS panels). […]

For another experiment, the target named is T2, CDK2^K89V (Homo sapiens, UniProt P24941, K89V).
T2 construct: GST (N, cleaved yes); made in house; host or cells: Escherichia coli; phosphorylated in vitro by GST-CAK
Kind of experiment: ESI-MS of covalent adduct, mutant. The note with it: CDK2^K89V/cyclin A, overnight incubation. On the procedure: as §4, §5, §6, §7

Sequence of IKKe (Q14164 whole entry): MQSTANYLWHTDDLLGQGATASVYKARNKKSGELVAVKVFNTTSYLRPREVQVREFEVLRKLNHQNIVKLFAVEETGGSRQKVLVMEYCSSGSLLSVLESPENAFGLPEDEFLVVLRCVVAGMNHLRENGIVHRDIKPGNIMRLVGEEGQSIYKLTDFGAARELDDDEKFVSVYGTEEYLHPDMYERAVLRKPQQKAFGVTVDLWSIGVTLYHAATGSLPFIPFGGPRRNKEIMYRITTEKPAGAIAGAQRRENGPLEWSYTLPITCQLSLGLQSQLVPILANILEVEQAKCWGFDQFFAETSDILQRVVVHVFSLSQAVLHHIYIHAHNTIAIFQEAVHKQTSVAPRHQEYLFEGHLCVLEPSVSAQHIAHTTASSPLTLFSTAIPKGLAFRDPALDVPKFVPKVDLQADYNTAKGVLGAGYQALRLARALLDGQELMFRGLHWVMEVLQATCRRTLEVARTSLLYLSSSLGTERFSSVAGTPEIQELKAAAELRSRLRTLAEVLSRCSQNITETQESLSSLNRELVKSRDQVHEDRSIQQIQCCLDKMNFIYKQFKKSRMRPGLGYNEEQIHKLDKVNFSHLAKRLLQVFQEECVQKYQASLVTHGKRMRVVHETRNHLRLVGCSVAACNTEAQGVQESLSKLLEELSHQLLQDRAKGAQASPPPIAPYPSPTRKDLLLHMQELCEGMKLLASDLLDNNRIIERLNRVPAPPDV
Sequence of Aurora B (Q96GD4 whole entry): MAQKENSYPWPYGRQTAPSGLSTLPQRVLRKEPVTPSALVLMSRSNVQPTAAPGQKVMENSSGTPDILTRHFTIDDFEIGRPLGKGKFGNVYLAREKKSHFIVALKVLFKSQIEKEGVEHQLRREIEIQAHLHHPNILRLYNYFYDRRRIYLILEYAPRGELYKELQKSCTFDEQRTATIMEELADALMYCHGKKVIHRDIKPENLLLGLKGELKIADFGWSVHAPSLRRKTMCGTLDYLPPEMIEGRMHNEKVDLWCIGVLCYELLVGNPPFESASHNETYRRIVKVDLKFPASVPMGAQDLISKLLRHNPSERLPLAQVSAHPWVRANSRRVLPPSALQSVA
Sequence of CK1δ (P48730 whole entry): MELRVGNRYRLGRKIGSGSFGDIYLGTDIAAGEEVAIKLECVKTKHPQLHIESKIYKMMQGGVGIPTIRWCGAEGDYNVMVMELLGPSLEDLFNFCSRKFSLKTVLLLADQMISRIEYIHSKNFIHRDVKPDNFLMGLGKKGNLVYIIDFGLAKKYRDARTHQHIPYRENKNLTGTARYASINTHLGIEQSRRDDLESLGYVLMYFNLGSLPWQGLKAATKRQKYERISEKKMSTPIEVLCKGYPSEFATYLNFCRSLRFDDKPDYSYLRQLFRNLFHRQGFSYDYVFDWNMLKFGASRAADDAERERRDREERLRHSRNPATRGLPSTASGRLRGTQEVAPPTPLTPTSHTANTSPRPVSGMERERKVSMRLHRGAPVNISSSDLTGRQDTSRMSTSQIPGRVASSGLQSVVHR
Sequence of ABL (P00519 whole entry): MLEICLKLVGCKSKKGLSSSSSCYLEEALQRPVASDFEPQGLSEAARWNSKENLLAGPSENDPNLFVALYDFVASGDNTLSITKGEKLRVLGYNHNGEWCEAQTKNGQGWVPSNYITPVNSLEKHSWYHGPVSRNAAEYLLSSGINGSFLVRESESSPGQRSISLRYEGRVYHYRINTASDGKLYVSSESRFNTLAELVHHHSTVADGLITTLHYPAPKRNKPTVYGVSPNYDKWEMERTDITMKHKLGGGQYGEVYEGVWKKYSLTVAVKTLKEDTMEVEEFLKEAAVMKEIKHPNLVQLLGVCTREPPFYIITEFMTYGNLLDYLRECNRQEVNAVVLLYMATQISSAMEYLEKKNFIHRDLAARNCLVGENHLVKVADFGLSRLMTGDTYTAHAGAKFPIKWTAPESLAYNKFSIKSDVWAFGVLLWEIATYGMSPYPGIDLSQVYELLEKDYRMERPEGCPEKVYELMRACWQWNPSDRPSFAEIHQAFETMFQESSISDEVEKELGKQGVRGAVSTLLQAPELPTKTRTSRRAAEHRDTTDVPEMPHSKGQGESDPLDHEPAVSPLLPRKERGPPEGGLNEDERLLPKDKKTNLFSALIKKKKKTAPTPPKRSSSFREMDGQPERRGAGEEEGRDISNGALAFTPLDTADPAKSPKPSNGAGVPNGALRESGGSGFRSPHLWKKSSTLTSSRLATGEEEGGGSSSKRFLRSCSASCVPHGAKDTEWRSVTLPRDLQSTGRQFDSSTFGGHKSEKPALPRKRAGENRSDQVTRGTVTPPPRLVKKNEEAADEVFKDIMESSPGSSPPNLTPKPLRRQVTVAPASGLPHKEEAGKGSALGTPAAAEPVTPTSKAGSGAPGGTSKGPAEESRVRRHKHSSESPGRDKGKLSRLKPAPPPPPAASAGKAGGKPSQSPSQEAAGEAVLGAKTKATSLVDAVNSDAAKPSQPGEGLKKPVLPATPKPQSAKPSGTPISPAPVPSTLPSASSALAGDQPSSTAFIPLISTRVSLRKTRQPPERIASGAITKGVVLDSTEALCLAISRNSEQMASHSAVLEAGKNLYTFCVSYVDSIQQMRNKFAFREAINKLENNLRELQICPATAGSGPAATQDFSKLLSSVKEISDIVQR
Sequence of CSK (P41240 whole entry): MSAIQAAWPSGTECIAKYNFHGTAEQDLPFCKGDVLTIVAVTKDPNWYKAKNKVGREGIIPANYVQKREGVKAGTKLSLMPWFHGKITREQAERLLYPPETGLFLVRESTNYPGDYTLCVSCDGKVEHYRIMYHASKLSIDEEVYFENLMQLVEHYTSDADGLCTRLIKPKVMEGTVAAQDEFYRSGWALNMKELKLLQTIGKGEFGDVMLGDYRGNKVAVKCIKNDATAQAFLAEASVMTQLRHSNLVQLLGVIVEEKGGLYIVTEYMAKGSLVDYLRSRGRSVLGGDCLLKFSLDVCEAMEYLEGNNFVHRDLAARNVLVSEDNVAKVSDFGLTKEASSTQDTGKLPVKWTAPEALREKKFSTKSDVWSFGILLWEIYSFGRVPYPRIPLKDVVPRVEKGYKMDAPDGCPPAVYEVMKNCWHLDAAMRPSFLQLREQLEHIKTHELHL

The term remaining activity denotes the activity still measured, relative to the control. Consider `C=CS(=O)(=O)c1ccc(Nc2nc(OCC3CCCCC3)c3nc[nH]c3n2)cc1` [NU6300, 6-(cyclohexylmethoxy)-N-(4-(vinylsulfonyl)phenyl)-9H-purin-2-amine], for which the remaining activity at 1 µM at CAMK1 came to 89%; on CK1δ, 83%; at CSK it was 82%; on IKKe, 68%; at ABL, 56%; on Aurora B it was 26%. Besides, the “mass added to major CDK2 species (ESI-MS)” value at CDK2^D86A is 414 Da; at CDK2^K89V, “no additional mass”.
